The text below walks through data of ChEMBL document CHEMBL1132604, “Hypoxia-selective nitrobenzyloxycarbonyl derivatives of 1,2-bis(methylsulfonyl)-1-(2-chloroethyl)hydrazines” (1999).

Common to all, as to assay type: functional
Experiment [1] has as its system Mus musculus. Nature of the experiment: Surviving fraction of compound on BALB/c mice bearing well established intradermal EMT6 solid tumors was measured by intraperitoneal injection on treatment with drug.
The subject of experiment [2] is Mus musculus. Nature of the experiment: Surviving fraction of compound on BALB/c mice bearing well established intradermal EMT6 solid tumors was measured by intraperitoneal injection without any treatment.
Experiment [3] deals with Mus musculus. Nature of the experiment: Surviving fraction of compound on BALB/c mice bearing well established intradermal EMT6 solid tumors was measured by intraperitoneal injection on treatment with drug and X-ray.
Experiment [4] concerns Mus musculus. Nature of the experiment: Surviving fraction of compound on BALB/c mice bearing well established intradermal EMT6 solid tumors was measured by intraperitoneal injection on treatment with X-ray.
In experiment [5] the test system is Mus musculus. Briefly: Surviving fraction of compound on BALB/c mice bearing well established intradermal EMT6 solid tumors was measured by intraperitoneal injection on treatment with drug alone.
The subject of experiment [6] is Mus musculus. Briefly: Surviving fraction of compound on BALB/c mice bearing well established intradermal EMT6 solid tumors was measured by intraperitoneal injection on treatment with X-ray alone.

Regarding `CS(=O)(=O)N(CCCl)N(C(=O)OCc1ccc([N+](=O)[O-])cc1)S(C)(=O)=O`, the Surviving fraction in experiment [1] is recorded as 0.841; in experiment [2], 1; in experiment [3] it was 0.013; in experiment [4] it was 0.043.

`COc1cc(COC(=O)N(N(CCCl)S(C)(=O)=O)S(C)(=O)=O)c([N+](=O)[O-])cc1OC`: the Surviving fraction in experiment [5] was determined as 0.856; in experiment [2] it was 1; in experiment [3] it was 0.024; in experiment [6] it was 0.043.
